Experimental data taken from patent publication US20230109801A1 (Blue Oak Pharmaceuticals, Inc., priority 2020, published 2023).
Structures can show the parent of a compound that is named as a salt.

System: mice
Assay: SmartCube in vivo neuropharmacological behavioral assay
Details: for minimal effective dose: Mus musculus, ip, dose having 50% or more total activity in SmartCube, i.p., read-out: MED (minimal effective dose); for AD: antidepressant, percent probability / AG: analgesic, percent probability / AP: antipsychotic, percent probability / AX: anxiolytic, percent probability / CE: cognitive enhancer, percent probability / HA: hallucinogenic, percent probability / MS: mood stabilizer, percent probability / PS, percent probability / SD: sedative hypnotic, percent probability / SE: side effects, percent probability / UN: uncharacterized CNS activity, percent probability / XG: anxiogenic, percent probability: SmartCube, i.p. 15 min before test, at the MED
Protocol: The compounds were evaluated for their CNS related properties (e.g., the treatment, prevention or diagnosis of CNS or CNS-related disorders and/or amelioration of symptoms) using neuropharmacological screening methods described in S. L. Roberts et al., Front. Neurosci. 2011, 5:103 (hereinafter referred to as “Roberts,” the contents of which are incorporated herein by reference in their entirety).
According to Roberts, intact systems are useful in detecting improvement in disease-relevant endpoints, because psychiatric diseases generally result from disorders of cell-cell communication or circuitry. The endpoints are typically behavioral in nature, often requiring human observation and interpretation. In order to test multiple compounds for behavioral effects relevant to neurological and psychiatric diseases and disorders, PsychoGenics, Inc. (Paramus, N.J. “PGI”) developed SmartCube®, an automated system in which behaviors of compound-treated mice are captured by digital video and analyzed with computer algorithms to facilitate testing of multiple compounds for behavioral effects relevant to psychiatric disease. (D. Brunner et al., Drug Discov. Today 2002, 7:S107-S112; Alexandrov et al., Eur. J. Pharmacol. 2015, 753:127-134; the contents of each of which are incorporated herein by reference in their entirety).
The SmartCube® system is described in Example 2.2 of U.S. Pat. No. 9,758,529 and Example 289 of WIPO Publication No. WO2018/023070, the contents of each of which are incorporated herein by reference in their entirety.
According to the present disclosure, compounds identified may be evaluated using the SmartCube® system. The results of such analysis correlate certain patterns or combinations of behaviors to CNS effects along a percent probability scale of 0-100 where zero (O) reflects the limit of quantitation (LOQ).
The compounds of the present disclosure were evaluated for their CNS related properties (e.g., the treatment, prevention or diagnosis of CNS or CNS-related disorders and/or amelioration of symptoms) using neuropharmacological screening methods described in S. L. Roberts et al., Front. Neurosci. 2011, 5:103 (hereinafter referred to as “Roberts,” the contents of which are incorporated herein by reference in their entirety).
The SmartCube® system described herein was utilized to compare the behavioral signature of a test compound to a database of behavioral signatures obtained using a large set of diverse reference compounds (including but not limited to antipsychotics, anxiolytics, antidepressants and bipolar disorder medicine), thereby predicting the neuropharmacological effects of a test compound by similarity to major classes of compounds. It produces an activity signature indicating the probability that the activity of the test compound at the administered dose matches a given class of neuropharmacological agents. The test compound is simultaneously compared against multiple classes of agents; thus, a separate probability is generated for each behavioral effect measured (such as but not limited to anxiolytic activity and analgesic activity).
The compounds of the present disclosure were dissolved in a mixture of Pharmasolve™ (N-methyl-2-pyrrolidone (NMP)) and were injected i.p. 15 min. before the behavioral test. For each compound, injections were administered at different dose levels (e.g., 0.3, 1, 3, 10 and 30 mg per kg (mpk)). A compound's minimal effective dose (MED; see Table 3) is a measure of the compound's potency. The MED was defined as the dose (in mpk) having 50% or more total activity in SmartCube®. For each behavioral effect measured, results at the MED are presented. CNS activities of the compounds were recorded (see Table 2). In Table 1, a key to the percent probabilities (probability×100) for each behavioral effect (“X”) are defined provided, where LOQ is the limit of quantification.

| SMILES | minimal effective dose | AD: antidepressant, percent probability | AG: analgesic, percent probability | AP: antipsychotic, percent probability | AX: anxiolytic, percent probability | CE: cognitive enhancer, percent probability | HA: hallucinogenic, percent probability | MS: mood stabilizer, percent probability | PS, percent probability | SD: sedative hypnotic, percent probability | SE: side effects, percent probability | UN: uncharacterized CNS activity, percent probability | XG: anxiogenic, percent probability |
| --- | --- | --- | --- | --- | --- | --- | --- | --- | --- | --- | --- | --- | --- |
| Clc1cccc2c1C1CCC2N1 (stereo not drawn) [Compound 13, 3-Chloro-11-azatricyclo[6.2.1.0^2,7]undeca-2,4,6-triene hydrochloride] | > 30 mg/kg | + (LOQ ≤ X < 5%) | + (LOQ ≤ X < 5%) | + (LOQ ≤ X < 5%) | ++ (5% ≤ X < 25%) | ++ (5% ≤ X < 25%) | + (LOQ ≤ X < 5%) | + (LOQ ≤ X < 5%) | + (LOQ ≤ X < 5%) | + (LOQ ≤ X < 5%) | + (LOQ ≤ X < 5%) | +++ (25% ≤ X < 50%) | + (LOQ ≤ X < 5%) |
| CC(C)C(C)N1C2C=CC1c1ccccc12 (stereo not drawn) [Compound 58, 11-(3-Methylbutan-2-yl)-11-azatricyclo[6.2.1.0^2,7]undeca-2,4,6,9-tetraene hydrochloride] | > 30 mg/kg | ++ (5% ≤ X < 25%) | + (LOQ ≤ X < 5%) | + (LOQ ≤ X < 5%) | + (LOQ ≤ X < 5%) | + (LOQ ≤ X < 5%) | + (LOQ ≤ X < 5%) | + (LOQ ≤ X < 5%) | + (LOQ ≤ X < 5%) | + (LOQ ≤ X < 5%) | + (LOQ ≤ X < 5%) | + (LOQ ≤ X < 5%) | + (LOQ ≤ X < 5%) |
| CC1=C(C)C2c3ccccc3C1N2C(C)C [Compound 60, 9,10-Dimethyl-11-(propan-2-yl)-11-azatricyclo[6.2.1.0^2,7]undeca-2,4,6,9-tetraene hydrochloride] | 10 to 30 mg/kg | ++++ (50% ≤ X <1 00%) | ++ (5% ≤ X < 25%) | + (LOQ ≤ X < 5%) | + (LOQ ≤ X < 5%) | + (LOQ ≤ X < 5%) | + (LOQ ≤ X < 5%) | + (LOQ ≤ X < 5%) | ++ (5% ≤ X < 25%) | + (LOQ ≤ X < 5%) | + (LOQ ≤ X < 5%) | + (LOQ ≤ X < 5%) | + (LOQ ≤ X < 5%) |
| CC1C2NC(c3ccccc32)C1C (stereo not drawn) [Compound 48, 9,10-Dimethyl-11-azatricyclo[6.2.1.0^2,7]undeca-2,4,6-triene hydrochloride] | 10 to 30 mg/kg | ++ (5% ≤ X < 25%) | + (LOQ ≤ X < 5%) | + (LOQ ≤ X < 5%) | ++ (5% ≤ X < 25%) | ++++ (50% ≤ X <1 00%) | ++ (5% ≤ X < 25%) | + (LOQ ≤ X < 5%) | ++ (5% ≤ X < 25%) | + (LOQ ≤ X < 5%) | + (LOQ ≤ X < 5%) | + (LOQ ≤ X < 5%) | + (LOQ ≤ X < 5%) |
| CC(C)N1C2C=CC1c1ccccc12 [Compound 53, 11-(Propan-2-yl)-11-azatricyclo[6.2.1.0^2,7]undeca-2,4,6,9-tetraene hydrochloride] | 10 to 30 mg/kg | ++ (5% ≤ X < 25%) | ++ (5% ≤ X < 25%) | + (LOQ ≤ X < 5%) | ++ (5% ≤ X < 25%) | + (LOQ ≤ X < 5%) | + (LOQ ≤ X < 5%) | + (LOQ ≤ X < 5%) | ++ (5% ≤ X < 25%) | + (LOQ ≤ X < 5%) | + (LOQ ≤ X < 5%) | ++ (5% ≤ X < 25%) | + (LOQ ≤ X < 5%) |
| COCC(C)N1C2C=CC1c1ccccc12 (stereo not drawn) [Compound 57, 11-(1-Methoxypropan-2-yl)-11-azatricyclo[6.2.1.0^2,7]undeca-2,4,6,9-tetraene hydrochloride] | > 30 mg/kg | ++ (5% ≤ X < 25%) | + (LOQ ≤ X < 5%) | + (LOQ ≤ X < 5%) | + (LOQ ≤ X < 5%) | + (LOQ ≤ X < 5%) | + (LOQ ≤ X < 5%) | + (LOQ ≤ X < 5%) | + (LOQ ≤ X < 5%) | + (LOQ ≤ X < 5%) | + (LOQ ≤ X < 5%) | + (LOQ ≤ X < 5%) | + (LOQ ≤ X < 5%) |
| C1=CC2c3ccccc3C1N2C1CC1 [Compound 56, 11-Cyclopropyl-11-azatricyclo[6.2.1.0^2,7]undeca-2,4,6,9-tetraene hydrochloride] | 10 to 30 mg/kg | ++ (5% ≤ X < 25%) | + (LOQ ≤ X < 5%) | ++ (5% ≤ X < 25%) | ++ (5% ≤ X < 25%) | ++ (5% ≤ X < 25%) | + (LOQ ≤ X < 5%) | + (LOQ ≤ X < 5%) | + (LOQ ≤ X < 5%) | + (LOQ ≤ X < 5%) | + (LOQ ≤ X < 5%) | +++ (25% ≤ X < 50%) | + (LOQ ≤ X < 5%) |
| C1=CC2c3ccccc3C1N2C1CCCC1 [Compound 54, 11-Cyclopentyl-11-azatricyclo[6.2.1.0^2,7]undeca-2,4,6,9-tetraene hydrochloride] | 10 to 30 mg/kg | ++++ (50% ≤ X <1 00%) | ++ (5% ≤ X < 25%) | + (LOQ ≤ X < 5%) | ++ (5% ≤ X < 25%) | + (LOQ ≤ X < 5%) | + (LOQ ≤ X < 5%) | + (LOQ ≤ X < 5%) | ++ (5% ≤ X < 25%) | + (LOQ ≤ X < 5%) | + (LOQ ≤ X < 5%) | ++ (5% ≤ X < 25%) | + (LOQ ≤ X < 5%) |
| CC(C)N1C2CCC1c1cc(Cl)ccc12 (stereo not drawn) [Compound 28, 4-Chloro-11-(propan-2-yl)-11-azatricyclo[6.2.1.0^2,7]undeca-2,4,6-triene hydrochloride] | > 30 mg/kg | +++ (25% ≤ X < 50%) | + (LOQ ≤ X < 5%) | + (LOQ ≤ X < 5%) | ++ (5% ≤ X < 25%) | + (LOQ ≤ X < 5%) | + (LOQ ≤ X < 5%) | + (LOQ ≤ X < 5%) | + (LOQ ≤ X < 5%) | + (LOQ ≤ X < 5%) | ++ (5% ≤ X < 25%) | ++ (5% ≤ X < 25%) | + (LOQ ≤ X < 5%) |
